Assay results reported in patent US10577349B2 (Sanford Burnham Prebys Medical Discovery Institute, priority 2015, dated 2020).
In brackets after ≈: the same amount, converted by molar mass. Like-named read-outs stand apart in the source and are kept apart here.

How the values were obtained:
[1] = Hepatic Microsome Stability Human; assay type: in vitro ADME
PAMPA Permeability = assay type: in vitro ADME
[2] = Hepatic Microsome Stability Mouse; assay type: in vitro ADME
[3] = Aqueous Solubility in pION's buffer; assay type: physicochemical
[4] = Aqueous Solubility in 1xPBS, pH 7.4; assay type: physicochemical; conditions: pH 7.4, aqueous buffer
[5] = molecular target: HCV cap-dependent translation; assay: In vitro translation assay, FF-HCV-Ren construct, cap-dependent (FF luciferase); assay type: biochemical, rabbit reticulocyte lysates
Method in brief: (§1)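 In a cell-free system, lysate-driven translation of FF-IRES-Ren RNA (0.1 μg per well, 2 h, 30° C) follows 1 h compound pre-treatment at room temperature. Dual-Glo readings separate cap-dependent (FF) from IRES-mediated (Ren) output.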

A375 = assay: 48 h Cytotoxicity A375; assay type: cell-based; conditions: Homo sapiens, A-375
[6] = molecular target: HCV cap-independent translation; assay: In vitro translation assay, FF-HCV-Ren construct, cap-independent (Ren luciferase); assay type: biochemical, rabbit reticulocyte lysates
Method in brief: as §1

[7] = molecular target: EmCV Cap-dependent translation; assay: In vitro translation assay, FF-EmCV-Ren construct, cap-dependent (FF luciferase); assay type: biochemical, rabbit reticulocyte lysates
Method in brief: as §1

[8] = molecular target: EmCV Cap-independent translation; assay: In vitro translation assay, FF-EmCV-Ren construct, cap-independent (Ren luciferase); assay type: biochemical, rabbit reticulocyte lysates
Method in brief: as §1

A375 tumors = assay: A375 xenograft in nude mice; assay type: in vivo
Experimental: All animal studies were conducted in the SBMRI Animal Facility in accordance with the Institutional Animal Care and Use Committee guidelines. Six-week-old female nu/nu mice were purchased Harlan Laboratories (Indianapolis, Ind.) and allowed to acclimatize for 1 week. A375 cells (1×10^6, suspended in 200 μL sterile PBS) were injected into subcutaneous flank tissue. When the xenograft size reached ˜250 mm^3, mice were sorted into different groups. For PLX4720 and Compound 38 combination experiments, mice were either fed PLX4720-containing chow alone (AIN76A Roden Diet with 417 mg PLX4720/kg from Open Source Diets) for the control group or PLX4 720-containing chow plus an IP injection of 1 mg/kg Compound 38 twice a week. For MEKi plus Compound 38 experiments, PD0325901 at 20 mg/kg (formulated in 0.5% hydroxypropyl methylcellulose plus 0.2% Tween-80) was administered by oral gavage twice a week (Monday and Thursday) for the control group, or PD035901 plus IP injection of 1 mg/kg Compound 38 was administered twice a week (Tuesday and Friday). Mice were maintained in a pathogen-free environment with free access to food. Body weight and tumor volume were measured twice a week. Tumor size was measured with linear calipers and calculated using the formula: ([length in millimeters×(width in millimeters)2]/2). Mice were sacrificed after 4 weeks and tumors were fixed in Z-Fix (Anatech, Battle Creek, Mich.) and embedded in paraffin for immunohistochemistry.
A375 human melanomacells were injected subcutaneously (1×10^6) into the flank of nude mice and allowed to form established tumors. Once tumors reached approximately 250 mm3, mice were randomly grouped and subjected to the indicated treatments [chow containing PLX4720 (417 mg/kg) and/or Compound 38 (1 mg/kg, 2 times per week intraperitoneally)]. Tumor size was measured at the indicated time points. The experiment was repeated twice. […] When tumors were allowed to reach 500 mm^3 before initiating treatment, 5 of 7 […] mice subjected to BRAFi treatment alone relapsed as drug-resistant tumors (4/5 within 4-6 weeks), whereas only 3 of 6 (50%) subjected to combination treatment developed resistance, albeit more slowly (2/3 after 8 weeks; FIG. 22). […] Proteins prepared at the indicated times from A375 tumors that were subjected in vivo to treatment with Compound 38 were incubated with m^7GTP-beads to capture the eIF4F complex. Shown is time-dependent inhibition of eIF4G1 binding to eIF4E in vivo, concomitant with increased binding of inhibitory 4E-BP1 to eIF4E.

eIF4F complex = molecular target: T1, eIF4F complex (Mus musculus, UniProt Q6NZJ6); assay: m7GTP pull-down assay, WT or 4E-BP DKO MEFs; assay type: cell-based; conditions: 6 hours, Torin1 250 nmol/L
T1 construct: endogenous in cells; host or cells: WT and 4E-BP1/2 double-knock-out MEFs
Experimental: As previously described (Dowling R J, et al. mTORC1-mediated cell proliferation, but not cell growth, controlled by the 4E-BPs. Science. 2010; 328:1172-6), cells growing in 100 mm plates were washed (cold PBS), collected, and lysed in 50 mM MOPS/KOH (7.4), 100 mM NaCl, 50 mM NaF, 2 mM EDTA, 2 mM EGTA, 1% NP40, 1% Na-DOC, 7 mM β-mercaptoethanol, protease inhibitors and phosphatase inhibitor cocktail (Roche). Lysates were incubated with m7-GDP-agarose beads (Jena Bioscience) for 20 minutes, washed 4 times with the washing buffer containing 50 mM MOPS/KOH (7.4), 100 mM NaCl, 50 mM NaF, 0.5 mM EDTA, 0.5 mM EGTA, 7 mM (3-mercaptoethanol, 0.5 mM PMSF, 1 mM Na3VO4 and 0.1 mM GTP, and bound proteins were eluted by boiling the beads in loading buffer. m7-GDP-agarose pulled down material was analyzed by Western blot analysis.
Indicated cultures (WT or DKO 4E-BP) were treated with Torin1 (250 nmol/L) or indicated Compound 38 concentrations for 6 hours. Western blots show respective protein levels in total cell lysates or following pull-down using m^7GTP agarose beads. […] P3-Actin served as a loading control and to exclude contamination in m^7GTP pull-down.

[9] = Donor pH 5.0, Acceptor pH 7.4, read-out: PAMPA Permeability, Pe, Donor pH 5.0
[10] = Donor pH 6.2, Acceptor pH 7.4, read-out: PAMPA Permeability, Pe, Donor pH 6.2
[11] = pH 7.4, Donor pH 7.4, Acceptor pH 7.4, read-out: PAMPA Permeability, Pe, Donor pH 7.4
[12] = aqueous buffer, pH 5.0, read-out: Aqueous Solubility in pION's buffer pH 5.0
[13] = pH 6.2, aqueous buffer, read-out: Aqueous Solubility in pION's buffer pH 6.2
[14] = pH 7.4, aqueous buffer, read-out: Aqueous Solubility in pION's buffer pH 7.4

T1 sequence (Q6NZJ6 whole entry, one chain of several): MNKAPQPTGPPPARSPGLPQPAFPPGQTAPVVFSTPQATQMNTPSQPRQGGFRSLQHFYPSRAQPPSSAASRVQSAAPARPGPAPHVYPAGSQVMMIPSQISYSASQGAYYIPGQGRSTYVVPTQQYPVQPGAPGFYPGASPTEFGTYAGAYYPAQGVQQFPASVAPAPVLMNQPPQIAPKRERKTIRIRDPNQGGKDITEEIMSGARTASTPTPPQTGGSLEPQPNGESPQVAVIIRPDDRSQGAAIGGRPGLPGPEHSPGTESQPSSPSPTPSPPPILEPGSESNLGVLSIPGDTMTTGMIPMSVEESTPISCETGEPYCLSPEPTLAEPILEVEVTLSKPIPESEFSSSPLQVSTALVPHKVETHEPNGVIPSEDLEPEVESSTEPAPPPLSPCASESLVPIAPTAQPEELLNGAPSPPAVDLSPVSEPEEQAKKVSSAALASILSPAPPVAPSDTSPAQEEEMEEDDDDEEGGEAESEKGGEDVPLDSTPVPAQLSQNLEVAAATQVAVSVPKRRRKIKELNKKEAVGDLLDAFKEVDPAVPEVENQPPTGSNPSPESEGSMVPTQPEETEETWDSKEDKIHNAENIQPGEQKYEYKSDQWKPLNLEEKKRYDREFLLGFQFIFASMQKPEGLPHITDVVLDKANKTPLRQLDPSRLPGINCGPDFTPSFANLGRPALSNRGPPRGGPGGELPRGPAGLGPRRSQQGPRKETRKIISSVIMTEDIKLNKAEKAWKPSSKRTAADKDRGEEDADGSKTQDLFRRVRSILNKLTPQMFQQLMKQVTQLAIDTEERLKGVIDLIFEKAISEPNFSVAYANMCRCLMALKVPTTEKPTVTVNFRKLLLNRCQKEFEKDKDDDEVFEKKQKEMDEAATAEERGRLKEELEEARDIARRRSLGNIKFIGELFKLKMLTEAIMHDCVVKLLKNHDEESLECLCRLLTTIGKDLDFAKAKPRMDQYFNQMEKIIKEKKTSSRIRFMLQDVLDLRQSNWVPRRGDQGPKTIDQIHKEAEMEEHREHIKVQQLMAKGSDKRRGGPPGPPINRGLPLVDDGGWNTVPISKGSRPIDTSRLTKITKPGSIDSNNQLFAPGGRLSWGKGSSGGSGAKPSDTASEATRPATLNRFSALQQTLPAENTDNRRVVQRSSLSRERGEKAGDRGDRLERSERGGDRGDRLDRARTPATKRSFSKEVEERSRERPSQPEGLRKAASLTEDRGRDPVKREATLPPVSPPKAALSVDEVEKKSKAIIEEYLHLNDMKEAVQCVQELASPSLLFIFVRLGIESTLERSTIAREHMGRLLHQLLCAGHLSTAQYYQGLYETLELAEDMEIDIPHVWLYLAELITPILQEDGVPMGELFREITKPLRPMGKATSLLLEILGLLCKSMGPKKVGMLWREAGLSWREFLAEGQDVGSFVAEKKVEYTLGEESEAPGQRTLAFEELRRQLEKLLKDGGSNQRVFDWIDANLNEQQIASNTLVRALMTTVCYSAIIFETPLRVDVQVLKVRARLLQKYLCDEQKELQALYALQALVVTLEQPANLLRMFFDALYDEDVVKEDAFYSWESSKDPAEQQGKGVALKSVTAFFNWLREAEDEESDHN

SMILES	IC50 [5]	IC50 (A375)	IC50 [6]	IC50 [7]	IC50 [8]	further results
O=C(/C=C/c1nc2ccccc2[nH]1)c1c(O)nc2ccc(Cl)cc2c1-c1ccccc1 [BI-69A11, reference compound]						Hepatic Microsome Stability (% Remaining at 1 hr) Human [1]: 68.24 % Remaining; Hepatic Microsome Stability (% Remaining at 1 hr) Human (no NADPH) [1]: 61.74 % Remaining; Papp (PAMPA Permeability; [9]): 13 ×10⁻⁶ cm/s; Papp (PAMPA Permeability; [10]): 16 ×10⁻⁶ cm/s; Papp (PAMPA Permeability; [11]): 42 ×10⁻⁶ cm/s; Hepatic Microsome Stability (% remaining at 1 Hr) Mouse [2]: 48.54 % remaining; Hepatic Microsome Stability (% remaining at 1 Hr) Mouse (no NADPH) [2]: 45.01 % remaining; solubility [3, 12]: 0.16 µg/mL (≈ 0.376 µM); solubility [3, 13]: 0.24 µg/mL (≈ 0.564 µM); solubility [3, 14]: 0.1 µg/mL (≈ 0.235 µM); solubility [4]: 0.11 µg/mL (≈ 0.258 µM)
O=C(/C=C/c1ccccc1)c1c(C2CCCCC2)c2cc(Cl)ccc2[nH]c1=O [Compound 12, 6-chloro-3-cinnamoyl-4-cyclohexylquinolin-2(1H)-one]	10 to 20 µM	< 2 µM	> 20 µM	2 to 10 µM	10 to 20 µM	Hepatic Microsome Stability (% Remaining at 1 hr) Human [1]: 59.85 % Remaining; Hepatic Microsome Stability (% Remaining at 1 hr) Human (no NADPH) [1]: 57.73 % Remaining; Papp (PAMPA Permeability; [9]): 1010 ×10⁻⁶ cm/s; Papp (PAMPA Permeability; [10]): 301 ×10⁻⁶ cm/s; Papp (PAMPA Permeability; [11]): 379 ×10⁻⁶ cm/s; Hepatic Microsome Stability (% remaining at 1 Hr) Mouse [2]: 32.98 % remaining; Hepatic Microsome Stability (% remaining at 1 Hr) Mouse (no NADPH) [2]: 63.69 % remaining; solubility [3, 12]: 1.6 µg/mL (≈ 4.08 µM); solubility [3, 13]: 1.4 µg/mL (≈ 3.57 µM); solubility [3, 14]: 1.2 µg/mL (≈ 3.06 µM); solubility [4]: 1.5 µg/mL (≈ 3.83 µM)
O=C(/C=C/c1nc2cc(Cl)ccc2[nH]1)c1c(-c2ccccc2)c2cc(Cl)ccc2[nH]c1=O [Compound 62, 6-Chloro-3-[3-(5-chloro-1H-benzoimidazol-2-yl)-acryloyl]-4-phenyl-1H-quinolin-2-one]	2 to 10 µM	< 2 µM	2 to 10 µM	2 to 10 µM	2 to 10 µM	Hepatic Microsome Stability (% Remaining at 1 hr) Human [1]: 89.89 % Remaining; Hepatic Microsome Stability (% Remaining at 1 hr) Human (no NADPH) [1]: 54.66 % Remaining; Papp (PAMPA Permeability; [9]): 29 ×10⁻⁶ cm/s; Papp (PAMPA Permeability; [10]): 6.2 ×10⁻⁶ cm/s; Papp (PAMPA Permeability; [11]): 2.5 ×10⁻⁶ cm/s; Hepatic Microsome Stability (% remaining at 1 Hr) Mouse [2]: 85.64 % remaining; Hepatic Microsome Stability (% remaining at 1 Hr) Mouse (no NADPH) [2]: 82.96 % remaining; solubility [3, 12]: 0.34 µg/mL (≈ 0.739 µM); solubility [3, 13]: 0.42 µg/mL (≈ 0.912 µM); solubility [3, 14]: 0.12 µg/mL (≈ 0.261 µM); solubility [4]: 0.11 µg/mL (≈ 0.239 µM)
N#Cc1cncc(-c2c(C(=O)/C=C/c3ccccn3)c(=O)[nH]c3ccc(Cl)cc23)c1 [Compound 106, 5-[3-((2E)-3-(2-pyridyl)prop-2-enoyl)-6-chloro-2-oxo-4-hydroquinolyl]pyridine-3-carbonitrile]	> 20 µM	< 2 µM	10 to 20 µM	> 20 µM	10 to 20 µM	
CCOC(=O)c1cncc(-c2c(C(=O)/C=C/c3ccccn3)c(=O)[nH]c3ccc(Cl)cc23)c1 [Compound 107, Ethyl 5-[3-((2E)-3-(2-pyridyl)prop-2-enoyl)-6-chloro-2-oxo-4-hydroquinolyl]pyridine-3-carboxylate]	10 to 20 µM	2 to 10 µM	10 to 20 µM	> 20 µM	10 to 20 µM	
CN(C)c1ccc(-c2c(C(=O)/C=C/c3ccccn3)c(=O)[nH]c3ccc(Cl)cc23)cc1 [Compound 108, 3-((2E)-3-(2-pyridyl)prop-2-enoyl)-4-[4-(dimethylamino)phenyl]-6-chlorohydroquinolin-2-one]	10 to 20 µM	2 to 10 µM	2 to 10 µM	2 to 10 µM	2 to 10 µM	
CN(C)c1ccc(-c2c(C(=O)/C=C/c3cncc(F)c3)c(=O)[nH]c3ccc(Cl)cc23)cc1 [Compound 109, 3-[(2E)-3-(5-fluoro(3-pyridyl))prop-2-enoyl]-4-[4-(dimethylamino)phenyl]-6-chlorohydroquinolin-2-one]	2 to 10 µM	2 to 10 µM	2 to 10 µM	2 to 10 µM	2 to 10 µM	
O=C(/C(Br)=C\c1cncc(F)c1)c1c(-c2ccccc2)c2cc(Cl)ccc2[nH]c1=O [Compound 111, 3-[(2E)-2-bromo-3-(5-fluoro(3-pyridyl))prop-2-enoyl]-6-chloro-4-phenylhydroquinolin-2-one]	2 to 10 µM	2 to 10 µM	2 to 10 µM	2 to 10 µM	2 to 10 µM	
Cc1ccnc(C#CC(=O)c2c(-c3ccccc3)c3cc(Cl)ccc3[nH]c2=O)c1 [Compound 112, 6-Chloro-3-[3-(4-methyl-pyridin-2-yl)-propynoyl]-4-phenyl-1H-quinolin-2-one]	> 20 µM	> 20 µM	> 20 µM	> 20 µM	> 20 µM	
O=C(/C=C/c1ccc(Cl)s1)c1c(-c2ccccc2)c2cc(Cl)ccc2[nH]c1=O [Compound 113, 6-Chloro-3-[3-(5-chloro-thiophen-2-yl)-acryloyl]-4-phenyl-1H-quinolin-2-one]	2 to 10 µM	2 to 10 µM	2 to 10 µM	2 to 10 µM	2 to 10 µM	
Cc1ccc2[nH]c(/C=C/C(=O)c3c(-c4ccccc4)c4cc(Cl)cnc4[nH]c3=O)nc2c1 [Compound 114, (E)-6-chloro-3-(3-(5-methyl-1H-benzo[d]imidazol-2-yl)acryloyl)-4-phenyl-1,8-naphthyridin-2(1H)-one]	> 20 µM	2 to 10 µM	10 to 20 µM	2 to 10 µM	10 to 20 µM	
O=C(/C=C/c1cncc(Cl)c1)c1c(-c2ccccc2)c2cc(Cl)ccc2[nH]c1=O [Compound 115, (E)-6-chloro-3-(3-(5-chloropyridin-3-yl)acryloyl)-4-phenylquinolin-2(1H)-one]	2 to 10 µM	< 2 µM	2 to 10 µM	2 to 10 µM	2 to 10 µM	
CCCS(=O)(=O)Nc1ccc(F)c(C(=O)c2c[nH]c3ncc(Cl)cc23)c1F [PLX4720, reference compound]						Growth of established tumors (~250 mm^3), BRAFi alone (A375 tumors; chow containing PLX4720 (417 mg/kg)): largely inhibited; Tumors resumed growth, BRAFi-treated group (A375 tumors; treatment started at ~250 mm^3, PLX4720 chow): 3/5
CCC(=O)N1CCN(c2ccc(-n3c(=O)ccc4cnc5ccc(-c6cnc7ccccc7c6)cc5c43)cc2C(F)(F)F)CC1 [torin1, reference compound]						eIF4G1:eIF4E association (m7GTP pull-down) (eIF4F complex): induced dissociation of eIF4G1 from eIF4E in WT but not in 4E-BPDKOMEFs
